Results: patent publication US7638678B2, “Animal model for perimenopause and menopause and methods of inducing ovarian failure” (The Arizona Board of Regents, priority 2002, dated 2009)
“Also recorded” adds a separate entry of the source.

What was measured:
[1] = Tolerability of VCD dosing regimens; format: in vivo, mice
osteocalcin = experiment: Osteocalcin immunoradiometric assay; format: in vivo, B6C3F1 mice; conditions: 160 mg/kg i.p. 15 d
Procedure: Osteocalcin measurement: Intact serum Osteocalcin was measured using an immunoradiometric assay (IRMA, Immutopics, San Clemente, Calif.). Assay sensitivity was 0.4 ng/ml and the intra-assay coefficient of variation was 6.7%.

femur = experiment: Femur histology; format: in vivo, B6C3F1 mice; conditions: 160 mg/kg 15 d, femora d58
Procedure: Histology and oocyte counting: Ovaries were trimmed of fat and placed in Bouin's fixative (2 hours), transferred to 70% ethanol, paraffin-embedded and serially sectioned (4-5 μm), mounted and stained with hematoxylin and eosin. In every 20th section (10-13 sections per ovary), pre-antral follicles were classified as primordial (oocyte surrounded by a single layer of flattened granulosa cells), primary (oocyte surrounded by a single layer of cuboidal cells), secondary (oocyte surrounded by multiple layers of granulosa cells) or antral follicles (follicles containing a fluid-filled antrum). Femora were collected on d58 from both control and VCD-treated animals, fixed in 4% paraformaldehyde, transferred to formaldehyde/formic acid (Cal-Rite, Richard Allan Scientific, Kalamazoo, […]., decalcified 24 hours, vacuum embedded in paraffin and 4.5 μm sections of distal metaphysis were prepared and stained with hematoxylin and eosin.

[2] = cited from earlier work
[3] = Body and wet tissue weights, vaginal opening; format: in vivo, B6C3F1 mice
Procedure: (§1) Treatment: Immature mice (d28) were weighed and injected i.p. with either 80 mg/kg (1, 2, or 3 times daily), 160 mg/kg (1 or 2 times daily), or 240 mg/kg (once daily) with VCD or sesame oil (vehicle control, i.p.) for 15 d resulting in a total daily exposure of 80, 160, 240, or 320 mg/kg (n=6/group). All reagents were obtained from Sigma-Aldrich (St. Louis, Mo.). Estrous cycles of each animal were monitored daily by vaginal cytology from date of vaginal opening to persistent diestrus in VCD-treated mice, and from date of vaginal opening to d120 in controls. On d8, d10, d12, d14, d15, d30, d37, d46, d57 and d120, animals were weighed, euthanized by CO2 inhalation, and the ovaries, liver and trunk blood were collected. Plasma was separated from whole blood and stored at −20° C., and liver tissues were stored at −80° C. At each time point, adrenals, kidneys, uteri, ovaries, liver, and spleen were removed, grossly examined for lesions and wet tissue weights were recorded. Additional blood samples were collected by retro-orbital puncture and plasma was collected and stored on d58, d79, d91, and d100.

FSH = experiment: Plasma FSH radioimmunoassay; format: in vivo, B6C3F1 mice; conditions: 160 mg/kg 15 d
Procedure: as §1
Hormone Assays: Plasma FSH was measured by radioimmunoassay (RIA). Rat FSH hormone antigen, rat FSH antiserum and mouse FSH reference preparation were purchased from the National Institute of Diabetes and Digestive and Kidney diseases. Iodination reagents (Iodo-Beads™28665, 28666) were purchased from Pierce (Rockford Ill.). Briefly, a standard curve was prepared and cold standards and samples (100 μl) were added to labeled tubes along with primary antibody (1:1400 dilution) and iodinated FSH. Samples were shaken and stored at 4 C overnight. On day 2, 100 μl secondary antibody (Sigma Chemical, cat. # R9133) was added (1:10) dilution along with 200 μl of 2% normal rabbit serum and incubated at room temperature for 5 minutes. Tubes were centrifuged for 15 minutes at 3000 rpm, supernatant was decanted and pellets were counted in a gamma counter for 1 minute each. All samples were run in duplicate. The mean sensitivity of the assay was 200 pg/ml and inter- and intra-assay coefficients of variation were 2.7% and 6.7% respectively. Plasma 17β-estradiol was measured in unextracted plasma by radioimmunoassay (Diagnostic Products Inc., CA). The mean sensitivity of the assay was 5.1 pg/ml. The intra-assay coefficient of variation was 5.3%. Circulating androstenedione was measured by specific RIA. Androstenedione standards and antibody were provided by Dr. Cheryl Dyer (Northern Arizona University). The mean sensitivity of the assay was 70 pg/ml with an inter-assay coefficient of variation of 5.3%. The results of all RIAs were calculated by four-parameter logistic analysis using the software AssayZap (BioSoft, Ferguson, Mo.). Results are the mean±SEM.

17β-estradiol = experiment: Plasma 17β-estradiol radioimmunoassay; format: in vivo, B6C3F1 mice; conditions: 160 mg/kg 15 d, d37 through d91
Procedure: as §1, with “Plasma was separated from whole blood and stored at −20° C., and liver tissues were stored at −80° C.” left out, “Additional blood samples were collected by retro-orbital puncture and plasma was collected and stored on d58, d79, d91, and d100.” left out
Hormone Assays: Plasma FSH was measured by radioimmunoassay (RIA). […] Tubes were centrifuged for 15 minutes at 3000 rpm, supernatant was decanted and pellets were counted in a gamma counter for 1 minute each. […] Plasma 17β-estradiol was measured in unextracted plasma by radioimmunoassay (Diagnostic Products Inc., CA). […] Circulating androstenedione was measured by specific RIA. […] The results of all RIAs were calculated by four-parameter logistic analysis using the software AssayZap (BioSoft, Ferguson, Mo.). […]

ovarian follicles = conditions: cited from earlier work
[4] = intravenous 14C-tagged VCD, cited from earlier work

SMILES: C1CC2OC2CC1C1CO1 (stereo not drawn) [VCD, 4-vinylcyclohexene diepoxide]
- Adverse effects of the single daily injection regimen ([1]; 160 mg/kg/d i.p. for 15 d): without adverse effects
- Outcome of total dose injected in a single bolus ([1]; 2400 mg/kg single bolus): died and die within hours
- Tolerance of dosing 3 times a day ([1]; 3 times a day @ 80 mg/kg (total 240 mg/kg/d)): tolerated VCD as well as mice injected once a day with 160 mg/kg; also recorded: tolerate VCD well
- Plasma osteocalcin (osteocalcin; d46): 131.3 ± 5.4 ng/mL
- Plasma osteocalcin (osteocalcin; d58): 156.3 ± 6.1 ng/mL
- Plasma osteocalcin (osteocalcin; d120 (not different from control)): 143.4 ± 7.1 ng/mL
- Femur morphology relative to controls (femur): enhanced distances from growth plate to distal metaphysis of the femur with increased lucane
- Water solubility [2]: water soluble
- Adrenal, kidney and spleen weight ([3]; 160 mg/kg 15 d, any time): not affected; also recorded: no effect
- Whole body weights ([3]; 160 mg/kg 15 d, any time-point): not affected
- Increase in liver weight ([3]; 160 mg/kg 15 d, d15): 10 % above control
- Uterine weight relative to age-matched vehicle controls ([3]; 160 mg/kg 15 d, d15): 66.04%
- Increase in liver weight ([3]; 160 mg/kg 15 d, d37): 15 % above control
- Ovarian weight ([3]; 160 mg/kg 15 d, d37): 71.2 % of control
- Uterine weight relative to age-matched vehicle controls ([3]; 160 mg/kg 15 d, d37): 71.8%
- Liver weight ([3]; 160 mg/kg 15 d, d46): returned to control levels
- Ovarian weight ([3]; 160 mg/kg 15 d, d46): 61.8 % of control
- Ovarian weight ([3]; 160 mg/kg 15 d, d120): 20.7 % of control
- Uterine weight relative to age-matched vehicle controls ([3]; 160 mg/kg 15 d, d120): 47.0%
- Ovarian tissue weights across treatment groups ([3]; d10 or d15): not significantly different
- Onset of vaginal opening ([3]; not affected by VCD treatment): 31 ± 0.5 days
- Plasma FSH (FSH; d37): 11.5 ± 5.7 ng/mL
- Plasma FSH (FSH; d46): 14.3 ± 1.3 ng/mL
- Plasma FSH (FSH; d58): 20.2 ± 1.2 ng/mL
- Plasma FSH (FSH; d100): 25.8 ± 0.23 ng/mL
- Plasma FSH (FSH; d120): 25.9 ± 1.1 ng/mL
- Plasma FSH (FSH; d127 (data not shown)): increased (p<0.05) relative to controls
- Plasma levels of 17β-estradiol (17β-estradiol): below the limit of detection
- Premature ovarian failure in long term studies (ovarian follicles; F344 rats dosed with VCD): premature ovarian failure occurred within a year
- Number of primordial and primary follicles compared to vehicle controls (ovarian follicles; rats, 12 days of dosing): significant reduction
- Numbers of secondary follicles (ovarian follicles; rats, 30 days of dosing): significant reduction
- Half life ([4]; blood): 4.4 min
- Mean residence time [4]: 4.7 min
